Common to all, as to type: physicochemical
What all share (conditions): lipid:siRNA 25:1

Data set [1] in a line: Particle sizing by dynamic light scattering (DynaPro plate reader), in vitro formulations. As for the experimental part:
(§1) The siRNA concentrations were measured using Quanti-iT RiboGreen RNA reagent (Molecular Probes, (R11490)). Vesicle sizes were characterized by dynamic light scattering with a DynaPro™ Plate Reader (Wyatt Technology) in 96-well half-area UV plate (Coring) after diluting the formulation sample (20 μL) in phosphate buffered saline (80 μL) at a pH of about 7-8. A 1% agarose gel-based assay was used for analyzing nuclease degradation and protection. Encapsulation efficiency (EE) was calculated using data obtained from a RiboGreen assay.
Particle sizes and size distributions (PDI) were characterized by using dynamic light scattering (DLS). A DLS plate reader (Dynapro™, Wyatt Technology) was used for the DLS measurement. This DLS plate reader uses an 830 nm laser and the scattering angle is 158°. It also can control temperature from 4° C. to 70° C. A 96-well format was employed for the samples.
Samples for DLS analysis were prepared by mixing 20 μL of each sample stock solution with 80 μL PBS directly in the 96-well plate (#3697, Corning). Sample mixing was accomplished using a microplate shaker (Orbis, Mikura Ltd.). Plates were read at 20° C. with an acquisition time of 50 seconds for each sample, and data was analyzed with Wyatt Technology's Dynamics V6 software. To rule out potential multiple scattering artifacts, a second plate at 4-fold reduced sample concentrations was independently prepared by mixing 5 μL stock solutions with 95 μL PBS. Under our experimental conditions the results at the two concentrations were very similar, and the final reported result for each sample represents the average of values obtained from the two plates.

Data set [2] can be described thus: RiboGreen assay of siRNA encapsulation efficiency, in vitro formulations of Lipid-Based Particles. On the procedure:
The mixing solution of cationic lipids, cholesterol, non-cationic lipids and PEG-lipids was prepared in ethanol (total concentration at 10 mg/mL). siSTABLE (purchased from ThermoFisher) (sense-5′ GGGGAAAGCUGGCAAGAUUUU-3′SEQ ID NO. 1, antisense-5′-AAUCUUGCCAGCUUUCCCCUU-3′ SEQ ID NO: 2) % stock solution was prepared in 10 mg/mL of solution by dissolving 10 mg siRNA in 1 mL of RNAse-free UltraPure Water. The calculated amount of siRNA solution was added to 1 mL of citrate buffer (pH 4.0, 20 mM), to provide an siRNA concentration of 0.2 mg/mL, and warmed to 60 C. The calculated amount of lipid solution was warmed to 60 C, transferred to a 0.5 mL syringe with 28½ gauge needle, and injected into the citrate buffer with stirring at 60 C. After 3 minutes, 3 mL of PBS solution at room temperature (pH 7.4) was added into the lipid mixture with stirring. The Lipid-Based Particle solution was cooled to room temperature.
as §1
(§2) RNA concentration and encapsulation efficiency were determined using a Quant-iT® Ribogreen RNA reagent and kit available from Invitrogen. The siRNA was released from the Lipid-Based Particle using one of the following reagents: ethanol, Triton X-100, or phenol/chloroform. The siRNA concentration is quantified using fluorescent reading at 480 nm/520 nm.

The nature of data set [3]: RiboGreen assay of siRNA encapsulation efficiency, in vivo formulations of Lipid-Based Particles. As for the experimental part:
as §2
The lipid solution was prepared (10 mg/ml) by dissolving the lipid in 200 proof ethanol. The lipid mixture solution is prepared according to the above composition in Table 5.
An siRNA (TetR_ODC—12, G.G.G.G.A.A.A.G.C.U.G.G.C.A.A.G.A.U.U.U.U SEQ ID NO: 1) (ThermoFisher) solution is prepared in a concentration of 10 mg/ml by dissolving 10 mg siRNA in 1 ml of DNAse/RNAse-free distilled water.
(§3) A round bottom flask was submerged into a 65° C. water bath. Citrate buffer (37.5 ml) of pH 4.0 was pipetted into the flask. The solution was stirred by a magnetic stirring bar at a speed of 900 rpm. Both the pH 4.0 citrate buffer and the lipid solution were pre-warmed in the 65° C. water bath for about 3 minutes. A siRNA solution (0.5 ml) was pipetted into the pH 4.0 citrate buffer. The 12.5 ml lipid mixture solution was injected through a 27 gauge needle into the citrate buffer in about 30 seconds. The needle tip was inserted into the solution during the injection. The resulting solution was stirred for 5 minutes at a speed of 900 rpm. The flask was pulled up from the water bath and a 50 ml pH 7.4 PBS buffer was added into the flask. The final solution was further mixed at a speed of 900 rpm for 5 minutes. For the diafiltration process, a dialysis filter (Millipore, 100K, Cat#PXB100C50) was used to remove ethanol in the above solution. When the volume was reduced to 20 ml during the initial diafiltration, 20 ml of pH 7.4 PBS was added to the sample solution. The diafiltration was continued until the volume was reduced to 20 ml. The diafiltration process was repeated 4 times. The volume of the sample solution was reduced to about 12 ml and pH 7.4 PBS was added to make the final volume of 15 ml. The 15 ml solution was filtered sequentially through the 0.45 and 0.22 μm sterile PVDF membrane filters (Millipore) and immediately transferred into a sterile vial.

The nature of data set [4]: Particle sizing assay (Zetasizer Nano ZS), in vivo formulations. As for the experimental part: as §3
For measurements of particle sizes and size distributions (PDI), lipid-based particles were prepared as described above. The particle solution (60 μL) was pipetted into a disposable cuvette (UVette, Eppendorf, cat#952010051) and measured in the “General Purpose” mode. Attenuator and position were optimized by the device. Measurements were performed using a Zetasizer Nano ZS (Malvern Instruments) equipped with a 4 mW He—Ne laser at a wavelength of 633 nm at 25° C. Scattered light was detected at a 173° backward scattering angle. The viscosity and refractive index of water at 25° C. was used for data analysis with the Dispersion Technology Software 5.00 (Malvern Instruments).

The mark [5] stands for this setting: in vitro formulation a: Cationic lipid/Example 73/DSPC/Chol 45/10/15/30 wt %.
Setting [6] is: in vivo formulation A: Cationic lipid/Example 73/DSPC/Chol 45/10/15/30 wt %.
[7] abbreviates: in vitro formulation b: Cationic lipid/PEG-cholesterol/DSPC/Chol 45/10/15/30 wt %.
Where [8] appears, read: in vivo formulation I: Cationic lipid/PEG-DPPE/DSPC/Chol 45/10/15/30 wt %.
Where [9] appears, read: in vivo formulation J: Cationic lipid/PEG-DSPE/DSPC/Chol 45/10/15/30 wt %.
Setting [10] is: in vivo formulation L: Cationic lipid/PEG-DPG/DSPC/Chol 45/10/15/30 wt %.

Turning to `CCCCC/C=C\C/C=C\CCCCCCCCOCC(CCN1CCN(c2ccccc2)CC1)OCCCCCCCC/C=C\C/C=C\CCCCC` (stereo not drawn) [Example 5, 1-{3,4-bis[(9Z,12Z)-octadeca-9,12-dienyloxy]butyl}-4-phenylpiperazine], in data set [1] (setting [5]), the Size is reported as 157 nm and the “Size distribution (PDI)” value is listed as 0.070.
For the compound `CCCCC/C=C\C/C=C\CCCCCCCCOCC(CCN1CCC(OC)CC1)OCCCCCCCC/C=C\C/C=C\CCCCC` (stereo not drawn) [Example 19, 1-{3,4-bis[(9Z,12Z)-octadeca-9,12-dienyloxy]butyl}-4-methoxypiperidine], the “% Encapsulation Efficiency” value in data set [2] (setting [5]) came to 94.2%. The Size in data set [1] (setting [5]) came to 152 nm.
On to `CCCCC/C=C\C/C=C\CCCCCCCCOCC(CCN1CCOCC1)OCCCCCCCC/C=C\C/C=C\CCCCC` (stereo not drawn) [Example 2, 4-{3,4-bis[(9Z,12Z)-octadeca-9,12-dienyloxy]butyl}morpholine], for which the “% Encapsulation Efficiency” value in data set [3] (setting [6]) was 83.6%. In data set [4] (setting [6]), the Size stood at 89 nm and the “Size distribution (PDI)” value is “(0.1)”.
For the compound `CCCCC/C=C\C/C=C\CCCCCCCCOCC(CCN1CCN(C)CC1)OCCCCCCCC/C=C\C/C=C\CCCCC` (stereo not drawn) [Example 6, 1-{3,4-bis[(9Z,12Z)-octadeca-9,12-dienyloxy]butyl}-4-methylpiperazine], in data set [1] (setting [5]), the Size worked out at 178 nm and the “Size distribution (PDI)” value amounted to 0.16.
Regarding `CCCCC/C=C\C/C=C\CCCCCCCCOCC(CCOCCN1CCN(C)CC1)OCCCCCCCC/C=C\C/C=C\CCCCC` (stereo not drawn) [Example 28, 1-(2-{3,4-bis[(9Z,12Z)-octadeca-9,12-dienyloxy]butoxy}ethyl)-4-methylpiperazine], the “% Encapsulation Efficiency” value is 94.3% in data set [2] (setting [7]), 99% in data set [3] (setting [8]), 99% in data set [3] (setting [9]) and 99% in data set [3] (setting [10]). In addition, the Size in data set [4] (setting [8]) is recorded as 107.1 nm; in data set [4] (setting [9]), 80.2 nm; in data set [4] (setting [10]), 87 nm. Moreover, the “Size distribution (PDI)” value was “(0.025)” in data set [4] (setting [8]), “(0.026)” in data set [4] (setting [9]) and “(0.012)” in data set [4] (setting [10]).
As to `CCCCC/C=C\C/C=C\CCCCCCCCOCC(CCN(C)Cc1ccccc1)OCCCCCCCC/C=C\C/C=C\CCCCC` (stereo not drawn) [Example 11, N-benzyl-N-{3,4-bis[(9Z,12Z)-octadeca-9,12-dienyloxy]butyl}-N-methylamine], in data set [1] (setting [5]), the Size is 154 nm and the “Size distribution (PDI)” value was 0.2.
As to `CCCCC/C=C\C/C=C\CCCCCCCCOC[C@@H](CCN1CCCC1)OCCCCCCCC/C=C\C/C=C\CCCCC` [Example 20, 1-{(3R)-3,4-bis[(9Z,12Z)-octadeca-9,12-dienyloxy]butyl}pyrrolidine], the “% Encapsulation Efficiency” value in data set [2] (setting [5]) stood at 97.2%. For the same compound, the Size in data set [1] (setting [5]) is 146 nm; in data set [4] (setting [6]), 100 nm. For the same compound, the “Size distribution (PDI)” value in data set [4] (setting [6]) was “(0.09)”.
Consider `CCCCC/C=C\C/C=C\CCCCCCCCOCC(CCN(C)C)OCCCCCCCC/C=C\C/C=C\CCCCC` (stereo not drawn) [Example 4, N,N-dimethyl-3,4-bis[(9Z,12Z)-octadeca-9,12-dienyloxy]butan-1-amine], for which, in data set [2] (setting [7]), the “% Encapsulation Efficiency” value is listed as 97.5%. Besides, the Size in data set [1] (setting [7]) is 136.6 nm.
`CCCCC/C=C\C/C=C\CCCCCCCCOC[C@H](CCN1CCCC1)OCCCCCCCC/C=C\C/C=C\CCCCC` [Example 21, 1-{(3S)-3,4-bis[(9Z,12Z)-octadeca-9,12-dienyloxy]butyl}pyrrolidine]: the “% Encapsulation Efficiency” value in data set [2] (setting [5]) is listed as 96.9%. Moreover, the values for the Size in data set [1] (setting [5]) and in data set [4] (setting [6]) were 128 nm and 103 nm, respectively. The “Size distribution (PDI)” value in data set [4] (setting [6]) is reported as “(0.06)”.
As for `CCCCC/C=C\C/C=C\CCCCCCCCOC[C@@H](CCN(CC)CC)OCCCCCCCC/C=C\C/C=C\CCCCC` [Example 22, N-{(3R)-3,4-bis[(9Z,12Z)-octadeca-9,12-dienyloxy]butyl}-N,N-diethylamine], the “% Encapsulation Efficiency” value in data set [2] (setting [5]) amounted to 86%. In data set [1] (setting [5]), this compound had a Size of 130 nm.
As for `CCCCC/C=C\C/C=C\CCCCCCCCOCC(CCN1CCN(c2ccccc2OC)CC1)OCCCCCCCC/C=C\C/C=C\CCCCC` (stereo not drawn) [Example 8, 1-{3,4-bis[(9Z,12Z)-octadeca-9,12-dienyloxy]butyl}-4-(2-methoxyphenyl)piperazine], the Size in data set [1] (setting [5]) was 130 nm.
In the case of `CCCCC/C=C\C/C=C\CCCCCCCCOC[C@H](CCN(CC)CC)OCCCCCCCC/C=C\C/C=C\CCCCC` [Example 23, N-{(3S)-3,4-bis[(9Z,12Z)-octadeca-9,12-dienyloxy]butyl}-N,N-diethylamine], the “% Encapsulation Efficiency” value in data set [2] (setting [5]) was determined as 97.2%. Also, in data set [1] (setting [5]), the Size is listed as 128 nm.
Compound `CCCCC/C=C\C/C=C\CCCCCCCCOCC(CCN1CCC(N(C)C)CC1)OCCCCCCCC/C=C\C/C=C\CCCCC` (stereo not drawn) [Example 16, 1-{3,4-bis[(9Z,12Z)-octadeca-9,12-dienyloxy]butyl}-N,N-dimethylpiperidin-4-amine] registered a Size in data set [1] (setting [5]) of 70.9 nm.
Turning to `CCCCC/C=C\C/C=C\CCCCCCCCOCC(CCN(CCOC)CCOC)OCCCCCCCC/C=C\C/C=C\CCCCC` (stereo not drawn) [Example 18, N,N-bis(2-methoxyethyl)-3,4-bis [(9Z,12Z)-octadeca-9,12-dienyloxy]butan-1-amine], the “% Encapsulation Efficiency” value in data set [2] (setting [5]) is recorded as 94.1%. The compound further yielded a Size in data set [1] (setting [5]) of 104 nm.
In the case of `CCCCC/C=C\C/C=C\CCCCCCCCOCC(CCN(C)CCc1ccccn1)OCCCCCCCC/C=C\C/C=C\CCCCC` (stereo not drawn) [Example 10, N-{3,4-bis[(9Z,12Z)-octadeca-9,12-dienyloxy]butyl}-N-methyl-N-(2-pyridin-2-ylethyl)amine], in data set [1] (setting [5]), the Size stood at 161 nm and the “Size distribution (PDI)” value was 0.168.
`CCCCC/C=C\C/C=C\CCCCCCCCOCC(CCOCCN1CCCC1)OCCCCCCCC/C=C\C/C=C\CCCCC` (stereo not drawn) [Example 31, 1-(2-{3,4-bis[(9Z,12Z)-octadeca-9,12-dienyloxy]butoxy}ethyl)pyrrolidine]: the “% Encapsulation Efficiency” value in data set [2] (setting [7]) is 96.2%. Moreover, in data set [3] (setting [6]), the “% Encapsulation Efficiency” value turned out to be 93.3%. In data set [4] (setting [6]), the Size is 136 nm and the “Size distribution (PDI)” value was “(0.0923)”.

The values are drawn from patent US20100055169A1, “CATIONIC LIPIDS AND USES THEREOF” (ABBOTT LABORATORIES, priority 2008, published 2010).
